Test results taken from patent US20230257396A1, “MACROCYCLES AND THEIR USE” (BLOSSOMHILL THERAPEUTICS, INC., priority 2020, published 2023).
Where a chain is given by its changes, count along the chain named.

Legend:
Assay in all cases: KINOMEscan kinase binding assay (Eurofins/DiscoveRx), % Ctrl
[1] = target: T1, kinases (Homo sapiens, UniProt P10721)
T1 construct: purchased Eurofins/DiscoveRx; host or cells: E. coli BL21-derived host (T7 phage display) for most kinases; HEK-293 for the rest
How it was run: (§1)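 Competition binding: DNA- or phage-tagged kinases (T7 phage in E. coli BL21, or HEK-293-expressed) with immobilized biotinylated ligand beads and test compound, 1 h at room temperature. Bead-bound kinase eluted and quantified by qPCR; % Ctrl = (compound − positive control)/(negative control − positive control) ×100 at a single compound concentration.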

[2] = target: T2, kinases (Homo sapiens, UniProt P00533, L858R/T790M)
T2 construct: purchased Eurofins/DiscoveRx; host or cells: E. coli BL21-derived host (T7 phage display) for most kinases; HEK-293 for the rest
How it was run: as §1

[3] = target: T3, kinases (Homo sapiens, UniProt P36888)
T3 construct: purchased Eurofins/DiscoveRx; host or cells: E. coli BL21-derived host (T7 phage display) for most kinases; HEK-293 for the rest
T3 sequence (P36888 27-993): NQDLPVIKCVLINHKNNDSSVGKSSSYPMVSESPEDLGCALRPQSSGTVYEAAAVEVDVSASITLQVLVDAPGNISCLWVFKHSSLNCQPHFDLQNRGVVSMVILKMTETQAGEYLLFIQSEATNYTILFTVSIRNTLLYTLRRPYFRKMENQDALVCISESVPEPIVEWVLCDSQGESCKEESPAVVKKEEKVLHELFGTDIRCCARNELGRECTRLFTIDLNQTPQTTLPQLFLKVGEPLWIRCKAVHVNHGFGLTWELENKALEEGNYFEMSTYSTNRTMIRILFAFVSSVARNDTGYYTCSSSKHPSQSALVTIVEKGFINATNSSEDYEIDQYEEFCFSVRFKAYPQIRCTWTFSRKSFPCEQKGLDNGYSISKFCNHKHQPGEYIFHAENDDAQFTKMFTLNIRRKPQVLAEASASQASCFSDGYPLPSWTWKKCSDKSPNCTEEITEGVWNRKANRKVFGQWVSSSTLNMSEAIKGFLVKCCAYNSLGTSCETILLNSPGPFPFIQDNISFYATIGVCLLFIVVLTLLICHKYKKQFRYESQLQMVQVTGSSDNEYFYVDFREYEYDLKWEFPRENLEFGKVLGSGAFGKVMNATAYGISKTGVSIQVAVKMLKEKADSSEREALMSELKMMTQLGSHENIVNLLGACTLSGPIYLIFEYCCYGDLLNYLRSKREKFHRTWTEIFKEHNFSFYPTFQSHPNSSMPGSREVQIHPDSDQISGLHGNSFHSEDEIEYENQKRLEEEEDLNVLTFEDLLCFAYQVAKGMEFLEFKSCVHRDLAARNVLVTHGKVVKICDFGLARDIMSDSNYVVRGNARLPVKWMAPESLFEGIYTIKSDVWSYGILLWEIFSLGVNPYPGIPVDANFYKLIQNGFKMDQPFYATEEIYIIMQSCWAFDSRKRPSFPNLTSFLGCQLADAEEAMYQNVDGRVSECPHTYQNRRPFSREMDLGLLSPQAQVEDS
How it was run: as §1

[4] = target: T4, kinases (Homo sapiens, UniProt P10721, D816V)
T4 construct: purchased Eurofins/DiscoveRx; host or cells: E. coli BL21-derived host (T7 phage display) for most kinases; HEK-293 for the rest
How it was run: as §1

[5] = target: T5, kinases (Homo sapiens, UniProt P36888, K663Q)
T5 construct: purchased Eurofins/DiscoveRx; host or cells: E. coli BL21-derived host (T7 phage display) for most kinases; HEK-293 for the rest
T5 sequence (P36888 27-993 K663Q): T3 sequence (P36888 27-993) with K637Q
How it was run: as §1

[6] = target: T6, kinases (Homo sapiens, UniProt P42684)
T6 construct: purchased Eurofins/DiscoveRx; host or cells: E. coli BL21-derived host (T7 phage display) for most kinases; HEK-293 for the rest
How it was run: as §1

[7] = target EGFR(L858R, T790M); 1 μM
[8] = target FLT3-autoinhibited; 1 μM

T4 sequence (P10721 26-976 D816V): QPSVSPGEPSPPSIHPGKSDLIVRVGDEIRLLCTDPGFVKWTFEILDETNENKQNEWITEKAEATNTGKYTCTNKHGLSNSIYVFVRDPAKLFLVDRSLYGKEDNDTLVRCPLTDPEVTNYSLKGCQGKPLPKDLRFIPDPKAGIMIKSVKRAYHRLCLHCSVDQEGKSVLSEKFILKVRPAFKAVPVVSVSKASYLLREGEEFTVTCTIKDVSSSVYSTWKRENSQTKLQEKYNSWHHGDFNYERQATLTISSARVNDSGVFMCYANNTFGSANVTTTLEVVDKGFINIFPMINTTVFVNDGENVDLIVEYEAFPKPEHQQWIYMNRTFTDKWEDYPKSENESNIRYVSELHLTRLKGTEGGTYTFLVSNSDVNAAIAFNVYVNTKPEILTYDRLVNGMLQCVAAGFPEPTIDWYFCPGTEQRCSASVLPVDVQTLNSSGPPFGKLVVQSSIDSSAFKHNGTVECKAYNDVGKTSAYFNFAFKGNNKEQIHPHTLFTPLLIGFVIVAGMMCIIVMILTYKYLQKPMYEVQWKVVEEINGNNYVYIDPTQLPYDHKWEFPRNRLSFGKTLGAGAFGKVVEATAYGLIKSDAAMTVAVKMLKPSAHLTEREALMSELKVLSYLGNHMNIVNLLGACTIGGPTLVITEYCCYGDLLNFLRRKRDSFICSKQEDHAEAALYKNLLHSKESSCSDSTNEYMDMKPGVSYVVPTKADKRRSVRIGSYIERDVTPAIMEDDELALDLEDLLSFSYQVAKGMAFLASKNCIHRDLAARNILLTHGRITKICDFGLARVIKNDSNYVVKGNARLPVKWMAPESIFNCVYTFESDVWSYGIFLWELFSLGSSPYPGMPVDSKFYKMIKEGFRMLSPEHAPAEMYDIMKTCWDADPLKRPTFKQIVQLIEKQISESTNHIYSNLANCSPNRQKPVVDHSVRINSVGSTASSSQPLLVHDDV
T1 sequence (P10721 26-976): as the sequence (P10721 26-976 D816V) above, with V791D counted along it
T6 sequence (P42684 whole entry): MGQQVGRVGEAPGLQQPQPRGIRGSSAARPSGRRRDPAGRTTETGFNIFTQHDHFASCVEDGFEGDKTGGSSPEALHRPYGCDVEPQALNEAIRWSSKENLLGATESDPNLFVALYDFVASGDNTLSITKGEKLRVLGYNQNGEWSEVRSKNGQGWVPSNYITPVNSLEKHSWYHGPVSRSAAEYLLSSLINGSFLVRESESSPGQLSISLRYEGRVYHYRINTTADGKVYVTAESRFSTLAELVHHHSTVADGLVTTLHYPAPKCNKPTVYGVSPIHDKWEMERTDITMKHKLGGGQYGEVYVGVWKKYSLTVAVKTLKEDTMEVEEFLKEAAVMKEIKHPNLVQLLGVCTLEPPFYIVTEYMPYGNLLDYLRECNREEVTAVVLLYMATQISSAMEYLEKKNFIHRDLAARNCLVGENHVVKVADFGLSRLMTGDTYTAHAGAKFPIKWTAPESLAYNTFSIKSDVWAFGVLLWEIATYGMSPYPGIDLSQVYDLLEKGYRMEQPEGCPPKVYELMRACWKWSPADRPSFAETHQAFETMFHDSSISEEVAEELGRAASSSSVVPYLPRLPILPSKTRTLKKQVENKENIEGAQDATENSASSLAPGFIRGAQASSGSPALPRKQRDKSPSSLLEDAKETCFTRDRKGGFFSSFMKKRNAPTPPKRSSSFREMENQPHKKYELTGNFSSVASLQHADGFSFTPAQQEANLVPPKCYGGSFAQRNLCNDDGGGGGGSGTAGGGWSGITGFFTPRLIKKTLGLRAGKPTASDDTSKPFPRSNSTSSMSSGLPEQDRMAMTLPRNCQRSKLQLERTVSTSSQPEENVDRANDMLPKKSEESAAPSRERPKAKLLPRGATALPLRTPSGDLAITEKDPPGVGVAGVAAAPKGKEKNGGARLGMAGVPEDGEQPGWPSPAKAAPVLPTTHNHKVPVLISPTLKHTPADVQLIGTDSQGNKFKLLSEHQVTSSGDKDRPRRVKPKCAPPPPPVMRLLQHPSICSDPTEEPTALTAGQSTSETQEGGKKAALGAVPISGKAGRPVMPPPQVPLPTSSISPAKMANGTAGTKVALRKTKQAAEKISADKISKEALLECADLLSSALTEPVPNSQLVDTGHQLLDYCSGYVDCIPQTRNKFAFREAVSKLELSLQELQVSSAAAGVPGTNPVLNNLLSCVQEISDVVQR

SMILES	% Ctrl, KIT-autoinhibited ([1]; target KIT-autoinhibited; 1 μM) [% Ctrl]	% Ctrl, KIT ([1]; target KIT; 1 μM) [% Ctrl]	% Ctrl, EGFR(L858R, T790M) [2, 7] [% Ctrl]	% Ctrl, FLT3-autoinhibited [3, 8] [% Ctrl]	% Ctrl, FLT3 ([3]; target FLT3; 1 μM) [% Ctrl]	% Ctrl, KIT(D816V) ([4]; target KIT(D816V); 1 μM) [% Ctrl]	% Ctrl, FLT3(K663Q) ([5]; target FLT3(K663Q); 1 μM) [% Ctrl]	% Ctrl, ABL2 ([6]; target ABL2; 1 μM) [% Ctrl]	% Ctrl, KIT ([1]; 1 μM; KIT) [% Ctrl]	% Ctrl, KIT-autoinhibited ([1]; 1 μM; KIT-autoinhibited) [% Ctrl]	% Ctrl, EGFR(L858R, T790M) ([2]; 1 μM; EGFR(L858R, T790M)) [% Ctrl]	% Ctrl, FLT3 ([3]; 1 μM; FLT3) [% Ctrl]	% Ctrl, FLT3-autoinhibited ([3]; 1 μM; FLT3-autoinhibited) [% Ctrl]	% Ctrl, KIT(D816V) ([4]; 1 μM; KIT(D816V)) [% Ctrl]	% Ctrl, FLT3(K663Q) ([5]; 1 μM; FLT3(K663Q)) [% Ctrl]	% Ctrl, ABL2 ([6]; 1 μM; ABL2) [% Ctrl]	other results
Cc1nn(C)c2c1-c1ccc3c(c1)/C(=C/c1[nH]ccc1C(=O)N(C)CCCO2)C(=O)N3 [Ex. 150, [3a(4)Z]-9,14,16-trimethyl-10,11,13,14-tetrahydro-2H-1,17-(ethanediylidene)pyrazolo[4,3-m]dipyrrolo[3,2-f:3′,4′-i][1,4]oxazacyclopentadecine-3,8(5H,9H)-dione]	100	97	83	82	71	89	71	95	–	–	–	–	–	–	–	–	–
Cc1cc2c([nH]1)/C=C1\C(=O)Nc3ccc(cc31)-c1c(C)nn(C)c1COCCN(C)C2=O [Ex. 146, [3a(4)Z]-6,9,14,16-tetramethyl-10,11,13,14-tetrahydro-2H-1,17-(ethanediylidene)pyrazolo[4,3-m]dipyrrolo[3,2-f:3′,4′-i][1,4]oxazacyclopentadecine-3,8(5H,9H)-dione]	80	96	43	100	24	80	14	83	–	–	–	–	–	–	–	–	–
Cc1cc2c([nH]1)/C=C1\C(=O)Nc3ccc(cc31)-c1c(noc1C(C)C)COCCN(C)C2=O [Ex. 161, [3a(4)Z]-9-methyl-16-(propan-2-yl)-10,11-dihydro-2H,13H-1,17-(ethanediylidene)[1,2]oxazolo[4,3-m]dipyrrolo[3,2-f:3′,4′-i][1,4]oxazacyclopentadecine-3,8(5H,9H)-dione]	–	–	–	–	–	–	–	–	–	–	–	–	–	–	–	–	% Ctrl, KIT ([1]; 1 μM; target KIT): 98 % Ctrl; % Ctrl, KIT-autoinhibited ([1]; 1 μM; target KIT-autoinhibited): 100 % Ctrl; % Ctrl, EGFR(L858R, T790M) ([2]; 1 μM; target EGFR(L858R, T790M)): 96 % Ctrl; % Ctrl, FLT3 ([3]; 1 μM; target FLT3): 100 % Ctrl; % Ctrl, FLT3-autoinhibited ([3]; 1 μM; target FLT3-autoinhibited): 100 % Ctrl; % Ctrl, KIT(D816V) ([4]; 1 μM; target KIT(D816V)): 100 % Ctrl; % Ctrl, FLT3(K663Q) ([5]; 1 μM; target FLT3(K663Q)): 54 % Ctrl; % Ctrl, ABL2 ([6]; 1 μM; target ABL2): 87 % Ctrl
CN1CCOCCOc2cc3c(cc2Cl)NC(=O)/C3=C\c2[nH]ccc2C1=O [Ex. 143, [16a(17)Z]-19-chloro-2,5-dimethyl-6,7,9,10-tetrahydro-1H-12,14-(ethanediylidene)dipyrrolo[3,2-i:3′,4′-l][1,4,7]oxathiazacyclopentadecine-4,16(5H,15H)-dione]	40	9.9	75	62	15	34	11	40	–	–	–	–	–	–	–	–	–
Cc1cc2c([nH]1)/C=C1\C(=O)Nc3ccc(nc31)-c1ccccc1OCCCNC2=O [Ex.22, [3a(4)Z]-6-methyl-9,10,11,12-tetrahydro-1,18-(ethanediylidene)dipyrrolo[3,2-g:3′,4′-j][1,5,12]benzoxadiazacyclopentadecine-3,8(2H,5H)-dione]	–	–	–	–	–	–	–	–	100	100	97	81	100	96	100	95	–
Cc1cc2c([nH]1)/C=C1\C(=O)Nc3cc(Cl)c(cc31)OCCO[C@@H](C(=O)N(C)C)CN(C)C2=O [Ex. 137, [7R,16a(17)Z]-19-chloro-N,N,2,5-tetramethyl-4,16-dioxo-4,5,6,7,9,10,15,16-octahydro-1H-12,14-(ethanediylidene)dipyrrolo[3,2-i:3′,4′-l][1,4,7]dioxazacyclopentadecine-7-carboxamide]	–	–	–	–	–	–	–	–	90	72	93	55	77	67	69	99	–
Cc1cc2c([nH]1)/C=C1\C(=O)Nc3ccc(cc31)OCCOCCN(C)C2=O [Ex.91, [16a(17)Z]-2,5-dimethyl-6,7,9,10-tetrahydro-1H-12,14-(ethanediylidene)dipyrrolo[3,2-i:3′,4′-l][1,4,7]dioxazacyclopentadecine-4,16(5H,15H)-dione]	–	–	–	–	–	–	–	–	82	73	58	11	38	20	63	32	–
Cc1cc2c([nH]1)/C=C1\C(=O)Nc3cc(Cl)c(cc31)OCCO[C@@H](C(=O)NC1CCNCC1)CN(C)C2=O [Ex. 134, [7R,16a(17)Z]-19-chloro-2,5-dimethyl-4,16-dioxo-N-(piperidin-4-yl)-4,5,6,7,9,10,15,16-octahydro-1H-12,14-(ethaneidylidene)dipyrrolo[3,2-i:3′,4′-l][1,4,7]dioxazacyclopentadecine-7-carboxamide]	–	–	–	–	–	–	–	–	60	94	92	48	95	56	73	77	–
CN1CCSCCOc2cc3c(cc2Cl)NC(=O)/C3=C\c2[nH]ccc2C1=O [Ex. 153]	14	0.8	79	26	1.6	6.8	1.4	35	–	–	–	–	–	–	–	–	–
